The CheMixHub ionic liquid set

Experiment: xn = mol fraction of the nth substance listed

O=C1CCCCO1 + CCCC[n+]1ccn(C)c1.O=S(=O)([N-]S(=O)(=O)C(F)(F)F)C(F)(F)F
100 kPa, frequency 0.01 MHz
Details	electrical conductivity [S/m]
293.15 K, x2 = 0.1504	0.602
293.15 K, x2 = 0.4006	0.589
293.15 K, x2 = 0.8475	0.346
298.15 K, x2 = 0.1004	0.428
298.15 K, x2 = 0.4006	0.665
298.15 K, x2 = 0.5005	0.594
298.15 K, x2 = 0.5999	0.484
303.15 K, x2 = 0.1004	0.471
303.15 K, x2 = 0.1504	0.717
308.15 K, x2 = 0.0532	0.209
308.15 K, x2 = 0.1004	0.512
308.15 K, x2 = 0.2988	0.9
308.15 K, x2 = 0.7214	0.609
318.15 K, x2 = 0.1999	1.04
323.15 K, x2 = 0.0532	0.263
323.15 K, x2 = 0.1504	1
323.15 K, x2 = 0.1999	1.13
323.15 K, x2 = 0.7214	0.895

Nc1ccccc1 + CCCC[n+]1ccn(C)c1.O=S(=O)([O-])C(F)(F)F
Details	viscosity [mPa·s]
323.15 K, 100 kPa, x1 = 1	1.927

CCCCOCCO + CCCC[n+]1ccn(C)c1.[Br-]
100 kPa, x2 = 0
Details	viscosity [mPa·s]
298.15 K	2.79
303.15 K	2.44
308.15 K	2.22
313.15 K	1.98

CCCOCCO + CCCC[n+]1ccn(C)c1.[Br-]
100 kPa, x2 = 0
Details	viscosity [mPa·s]
298.15 K	2.38
303.15 K	2.11
308.15 K	1.88
313.15 K	1.69

O + CCCC[n+]1ccn(C)c1.[Br-]
101 kPa, x2 = 0
Details	electrical conductivity [S/m]
288.15 K	0.000101
298.15 K	0.00015
308.15 K	0.000216

CC1COC(=O)O1 (centres undefined) + CCCCn1cc[n+](C)c1C.O=S(=O)([N-]S(=O)(=O)C(F)(F)F)C(F)(F)F
101.3 kPa, x2 = 0
Details	viscosity [mPa·s]
288.15 K	3.063
293.15 K	2.746
343.15 K	1.213

O + CCCO + CCCCCCCCCCCCOS(=O)(=O)[O-].[Na+]
Details	electrical conductivity [S/m]
298 K, 100 kPa, frequency 0.001 MHz, x2 = 0, x1 = 1	0.0005

CCC[N+]1(C)CCCC1.O=S(=O)([N-]S(=O)(=O)C(F)(F)F)C(F)(F)F + CCC[N+]1(C)CCCC1.N#C[N-]C#N
101 kPa, x2 = 0
Details	electrical conductivity [S/m]	viscosity [mPa·s]
313.15 K	0.678	34.4
353.15 K	–	11.6

CCC[N+]1(C)CCCC1.O=S(=O)([N-]S(=O)(=O)C(F)(F)F)C(F)(F)F + CCC[N+](C)(C)C.O=S(=O)([N-]S(=O)(=O)C(F)(F)F)C(F)(F)F
Details	viscosity [mPa·s]
298.15 K, 101.3 kPa, x2 = 0	61

CC[n+]1ccn(C)c1.N#C[N-]C#N + CCO
viscosity [mPa·s]
Details	298.15 K	303.15 K	308.15 K	313.15 K	318.15 K	323.15 K	328.15 K	343.15 K
100 kPa, x1 = 0.0997	1.85	1.71	1.56	1.44	1.33	1.23	–	–
100 kPa, x1 = 0.196	2.7	2.47	2.25	2.07	1.9	1.75	–	–
100 kPa, x1 = 0.3001	3.66	3.31	3.02	2.76	2.53	2.33	–	–
100 kPa, x1 = 0.3945	4.62	4.16	3.78	3.45	3.16	2.9	–	–
100 kPa, x1 = 0.4997	5.82	5.23	4.72	4.29	3.92	3.59	–	–
100 kPa, x1 = 0.5993	7.11	6.35	5.71	5.16	4.7	4.29	–	–
100 kPa, x1 = 0.7013	8.69	7.71	6.89	6.19	5.61	5.1	–	–
100 kPa, x1 = 0.8014	10.45	9.21	8.17	7.3	6.57	5.95	–	–
100 kPa, x1 = 0.8929	11.97	10.48	9.25	8.23	7.37	6.65	–	–
100 kPa, x1 = 1	13.09	11.39	10	8.86	7.92	7.13	–	–
101 kPa, x2 = 0	–	–	–	10.07	–	–	7.26	–
101 kPa, x2 = 0.1981	–	–	–	–	–	–	–	4.25
101 kPa, x2 = 0.3596	–	–	–	5.68	–	–	4.29	–
101 kPa, x2 = 0.6028	4.42	–	–	–	–	–	–	–
101 kPa, x2 = 0.7678	2.72	–	–	–	–	–	–	–

O=C1CCCCCN1 + CCO + CCCC[N+](CCCC)(CCCC)CCCC.[Cl-]
electrical conductivity [S/m], 101 kPa
Details	x1 = 0.0058, x3 = 0.0058	x1 = 0.00584, x3 = 0.0058	x1 = 0.00587, x3 = 0.00587	x1 = 0.0059, x3 = 0.0059	x2 = 0.555, x1 = 0.2225	x2 = 0.6648, x1 = 0.1676	x2 = 0.7728, x1 = 0.1136	x2 = 0.8892, x1 = 0.0554
295.65 K	–	–	–	–	0.218	0.2632	0.3032	–
298.15 K	–	–	–	–	0.232	0.268	0.31	–
300.65 K	–	0.0588	–	–	0.241	0.269	0.3143	–
303.15 K	–	–	–	0.0587	0.256	0.27	0.317	0.25
305.65 K	–	0.0586	–	–	0.2704	0.2713	0.317	0.25
308.15 K	–	0.0585	–	–	0.2842	0.2737	0.319	0.249
310.65 K	–	–	–	0.0585	0.2936	0.276	0.3224	0.248
313.15 K	–	0.0585	–	–	0.3023	0.278	0.325	0.248
315.65 K	–	–	–	0.0587	0.308	0.28	0.328	0.248
318.15 K	–	–	–	0.0587	0.3136	0.2821	0.329	0.248
320.65 K	–	0.0587	–	–	0.3131	0.2841	0.3303	0.246
323.15 K	–	0.0586	–	–	0.315	0.287	0.329	0.245
325.65 K	0.0584	–	–	–	0.3129	0.288	0.327	0.246
328.15 K	0.0576	–	–	–	–	0.289	–	0.246
330.65 K	–	0.0569	–	–	–	0.288	–	0.245
333.15 K	–	–	0.0562	–	–	0.288	–	0.245

CC[n+]1ccn(C)c1.N#C[N-]C#N + CCO + O
viscosity [mPa·s], 101 kPa
Details	298.15 K	313.15 K	328.15 K	343.15 K
x2 = 0.0957, x3 = 0.7595	3.15	2.21	–	–
x2 = 0.1156, x3 = 0.8359	2.25	1.52	–	–
x2 = 0.1191, x3 = 0.3486	6.67	4.77	3.64	2.85
x2 = 0.2007, x3 = 0.7083	2.87	2	1.42	1.08
x2 = 0.2484, x3 = 0.6015	3.39	2.36	1.74	1.34
x2 = 0.2507, x3 = 0.6986	2.65	1.76	1.25	0.94
x2 = 0.2881, x3 = 0.404	4.63	3.33	2.52	2.02
x2 = 0.379, x3 = 0.1385	5.89	4.31	3.3	2.63
x2 = 0.4202, x3 = 0.3032	4	2.92	2.23	1.77
x2 = 0.4889, x3 = 0.4093	2.77	1.95	–	–
x2 = 0.6949, x3 = 0.2046	2.27	–	–	–

O + CCOS(=O)(=O)[O-].CC[n+]1ccn(C)c1
Details	electrical conductivity [S/m]
298.15 K, 101.3 kPa, x1 = 1	0.00264

CC1COC(=O)O1 (centres undefined) + CC[N+](CC)(CC)CC.F[B-](F)(F)F
101 kPa, x1 = 1
Details	viscosity [mPa·s]
283.15 K	3.551
298.15 K	2.531
308.15 K	2.09
313.15 K	1.918
